Results from US9974806B2 (priority 2012, dated 2018).

System: Shiga toxins

colloidal bismuth hydroxide gel [CBHG]
cytotoxic activity on Vero cells: significant decrease
